The record followed here is patent US20140314704A1, “Treatment of B Cell Lymphomas” (Senesco Technologies, Inc., priority 2011, published 2014).

Common to all, as to type: cell-based
One assay concerns KAS-6/1. The assay can be described thus: IC50 of multiple myeloma drugs alone and with IC20 SNS01-T, KAS-6/1. The conditions noted are these: for fold less IC50 with IC20 SNS01-T: KAS-6/1, with versus without IC20 SNS01-T.
In another assay the test system is U266. Briefly: IC50 of multiple myeloma drugs alone and with IC20 SNS01-T, U266. To be noted: for IC50: Homo sapiens, U-266; for fold less IC50 with IC20 SNS01-T: U266, with versus without IC20 SNS01-T.
Another assay deals with RPMI-8226. The assay can be described thus: IC50 of multiple myeloma drugs alone and with IC20 SNS01-T, RPMI-8226. To be noted: for IC50: Homo sapiens; for fold less IC50 with IC20 SNS01-T: RPMI-8226, with versus without IC20 SNS01-T.
Setting [1] is: KAS-6/1, drug alone, read-out: IC50.
Setting [2] is: KAS-6/1, with IC20 SNS01-T, read-out: IC50 with IC20 SNS01-T.
Where [3] appears, read: U266, drug alone, read-out: IC50.
[4] abbreviates: U266, with IC20 SNS01-T, read-out: IC50 with IC20 SNS01-T.
Where [5] appears, read: RPMI-8226, drug alone, read-out: IC50.
Setting [6] is: RPMI-8226, with IC20 SNS01-T, read-out: IC50 with IC20 SNS01-T.

The structures appear in SMILES notation. Read-outs that look alike come from different tables or passages of the source.

Take `CC(C)C[C@H](NC(=O)[C@H](Cc1ccccc1)NC(=O)c1cnccn1)B(O)O` [Bortezomib, bortezomib]: the IC50 in the assay with KAS-6/1 (setting [1]) was 7.31 nM; with KAS-6/1 (setting [2]), 2.64 nM; in the assay with U266 (setting [3]), 2.86 nM; with U266 (setting [4]) it was 0.83 nM; in the assay on RPMI-8226 (setting [5]), 2.12 nM; in the assay with RPMI-8226 (setting [6]) it was 1.51 nM. Further, the “fold less IC50 with IC20 SNS01-T” value in the assay with KAS-6/1 was ~2.8 ×; with U266, ~3.4 ×; with RPMI-8226, ~1.4 ×.
Regarding `Nc1cccc2c1CN(C1CCC(=O)NC1=O)C2=O` (stereo not drawn) [Lenalidomide, lenalidomide], the IC50 with KAS-6/1 (setting [1]) is 69800 nM; with KAS-6/1 (setting [2]) it was 2370 nM; in the assay with U266 (setting [3]), 62000 nM; with U266 (setting [4]), 1420 nM; in the assay on RPMI-8226 (setting [5]), 84900 nM; in the assay on RPMI-8226 (setting [6]), 3280 nM. Moreover, the entries for the “fold less IC50 with IC20 SNS01-T” value in the assay with KAS-6/1, in the assay with U266 and in the assay with RPMI-8226 were ~29 ×, ~43.7 × and 25.9 ×, respectively.

As usually defined, the IC50 is the concentration at which inhibition is half-maximal.
